Assays:
Prexasertib = compound: COc1cccc(OCCCN)c1-c1cc(Nc2cnc(C#N)cn2)n[nH]1 [Prexasertib]; settings: max 1 µM
Procedure, shortened: (§1)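 Cancer cell lines were seeded in 1536-well plates in 7.5 μl DMEM/F12 or RPMI with 10% FBS, held 24 hours at 37°C and 5% CO2, then dosed for 72 hours (final DMSO typically 0.2%). Viability was read by CellTiter-Glo 2.0 luminescence and scaled between blank-well and DMSO-well means. The single-agent IC50 comes from dose responses fitted to a two-parameter logistic curve with a non-linear mixed effects model.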

AZD2811 = compound: CCN(CCO)CCCOc1ccc2c(Nc3cc(CC(=O)Nc4cccc(F)c4)[nH]n3)ncnc2c1 [AZD2811]; settings: max 1 µM
Procedure, shortened: as §1

AZD8186 = compound: C[C@@H](Nc1cc(F)cc(F)c1)c1cc(C(=O)N(C)C)cc2c(=O)cc(N3CCOCC3)oc12 [AZD8186]; settings: max 10 µM
Procedure, shortened: as §1

AZD6738 = compound: C[C@@H]1COCCN1C2=NC(=NC(=C2)C3(CC3)[S@](=N)(=O)C)C4=C5C=CNC5=NC=C4 [AZD6738]; settings: max 10 µM
Procedure, shortened: as §1

AZD5153 = compound: COc1nnc2ccc(N3CCC(c4ccc(OCCN5CCN(C)C(=O)[C@H]5C)cc4)CC3)nn12 [AZD5153]; settings: max 1 µM
Procedure, shortened: as §1

Olaparib = compound: O=C(c1cc(Cc2n[nH]c(=O)c3ccccc23)ccc1F)N1CCN(C(=O)C2CC2)CC1 [Olaparib]; settings: max 10 µM
Procedure, shortened: as §1

AZD0156 = compound: CN(C)CCCOc1ccc(-c2ccc3ncc4c(c3c2)n(C2CCOCC2)c(=O)n4C)cn1 [AZD0156]; settings: max 3 µM
Procedure, shortened: as §1

AZD4320 = compound: CN(CC[C@H](CSC1=CC=CC=C1)NC2=C(C=C(C=C2)S(=O)(=O)NC(=O)C3=CC=C(C=C3)N4CCC(CC4)[C@H](C5=CC=CC=C5C6=CC=C(C=C6)Cl)O)S(=O)(=O)C(F)(F)F)CCO [AZD4320]; settings: max 1 µM
Procedure, shortened: as §1

5-Fluorouracil = compound: O=c1[nH]cc(F)c(=O)[nH]1 [5-Fluorouracil]; settings: max 20 µM
Procedure, shortened: as §1

AZD1775 = compound: C=CCn1c(=O)c2cnc(Nc3ccc(N4CCN(C)CC4)cc3)nc2n1-c1cccc(C(C)(C)O)n1 [AZD1775]; settings: max 3 µM
Procedure, shortened: as §1

Crizotinib = compound: C[C@@H](Oc1cc(-c2cnn(C3CCNCC3)c2)cnc1N)c1c(Cl)ccc(F)c1Cl [Crizotinib]; settings: max 10 µM
Procedure, shortened: as §1

Alisertib = compound: COc1cc(Nc2ncc3c(n2)-c2ccc(Cl)cc2C(c2c(F)cccc2OC)=NC3)ccc1C(=O)O [Alisertib]; settings: max 10 µM
Procedure, shortened: as §1

[1] = compound: O=C(Nc1ccc2[nH]nc(-c3ccncc3)c2c1)[C@@H]1CCN(CC(=O)N2CCN(c3ccc(-c4ncccn4)cc3)CC2)C1; settings: max 5 µM
Procedure, shortened: as §1

Gefitinib = compound: COc1cc2ncnc(Nc3ccc(F)c(Cl)c3)c2cc1OCCCN1CCOCC1 [Gefitinib]; settings: max 10 µM
Procedure, shortened: as §1

Venetoclax = compound: CC1(C)CCC(CN2CCN(c3ccc(C(=O)NS(=O)(=O)c4ccc(NCC5CCOCC5)c([N+](=O)[O-])c4)c(Oc4cnc5[nH]ccc5c4)c3)CC2)=C(c2ccc(Cl)cc2)C1 [Venetoclax]; settings: max 1 µM
Procedure, shortened: as §1

SG3199 = compound: CC1=CN2[C@@H](C1)C=NC3=CC(=C(C=C3C2=O)OC)OCCCCCOC4=C(C=C5C(=C4)N=C[C@@H]6CC(=CN6C5=O)C)OC [SG3199]; settings: max 0.001 µM
Procedure, shortened: as §1

Taselisib = compound: Cc1nc(-c2cn3c(n2)-c2ccc(-c4cnn(C(C)(C)C(N)=O)c4)cc2OCC3)n(C(C)C)n1 [Taselisib]; settings: max 10 µM
Procedure, shortened: as §1

Lapatinib = compound: CS(=O)(=O)CCNCc1ccc(-c2ccc3ncnc(Nc4ccc(OCc5cccc(F)c5)c(Cl)c4)c3c2)o1 [Lapatinib]; settings: max 10 µM
Procedure, shortened: as §1

Palbociclib = compound: CC(=O)c1c(C)c2cnc(Nc3ccc(N4CCNCC4)cn3)nc2n(C2CCCC2)c1=O [Palbociclib]; settings: max 10 µM
Procedure, shortened: as §1

AZD5991 = compound: Cc1c2c(nn1C)CSCc1cc(n(C)n1)CSc1cc(c3ccccc3c1)OCCCc1c(C(=O)O)n(C)c3c-2c(Cl)ccc13 [AZD5991]; settings: max 1 µM
Procedure, shortened: as §1

Savolitinib = compound: C[C@@H](c1ccc2nccn2c1)n1nnc2ncc(-c3cnn(C)c3)nc21 [Savolitinib]; settings: max 1 µM
Procedure, shortened: as §1

SN-38 = compound: CCc1c2c(nc3ccc(O)cc13)-c1cc3c(c(=O)n1C2)COC(=O)[C@]3(O)CC [SN-38]; settings: max 0.3 µM
Procedure, shortened: as §1

MK-2206 = compound: NC1(c2ccc(-c3nc4ccn5c(=O)[nH]nc5c4cc3-c3ccccc3)cc2)CCC1 [MK-2206]; settings: max 10 µM
Procedure, shortened: as §1

SRA737 = compound: N#Cc1cnc(Nc2cc(NC[C@H]3CNCCO3)c(C(F)(F)F)cn2)cn1 [SRA737]; settings: max 10 µM
Procedure, shortened: as §1

Doxorubicin = compound: COc1cccc2c1C(=O)c1c(O)c3c(c(O)c1C2=O)C[C@@](O)(C(=O)CO)C[C@@H]3O[C@H]1C[C@H](N)[C@H](O)[C@H](C)O1 [Doxorubicin]; settings: max 1 µM
Procedure, shortened: as §1

Trametinib = compound: CC(=O)Nc1cccc(-n2c(=O)n(C3CC3)c(=O)c3c(Nc4ccc(I)cc4F)n(C)c(=O)c(C)c32)c1 [Trametinib]; settings: max 1 µM
Procedure, shortened: as §1

Selumetinib = compound: Cn1cnc2c(F)c(Nc3ccc(Br)cc3Cl)c(C(=O)NOCCO)cc21 [Selumetinib]; settings: max 10 µM
Procedure, shortened: as §1

Carboplatin = compound: C1CC(C1)(C(=O)[O-])C(=O)[O-].N.N.[Pt+2] [Carboplatin]; settings: max 10 µM
Procedure, shortened: as §1

AZD7648 = compound: Cc1cc2ncnn2cc1Nc1ncc2c(n1)n(C1CCOCC1)c(=O)n2C [AZD7648]; settings: max 10 µM
Procedure, shortened: as §1

Etoposide = compound: COc1cc([C@@H]2c3cc4c(cc3[C@@H](O[C@@H]3O[C@@H]5CO[C@@H](C)O[C@H]5[C@H](O)[C@H]3O)[C@H]3COC(=O)[C@H]23)OCO4)cc(OC)c1O [Etoposide]; settings: max 10 µM
Procedure, shortened: as §1

Gemcitabine = compound: Nc1ccn([C@@H]2O[C@H](CO)[C@@H](O)C2(F)F)c(=O)n1 [Gemcitabine]; settings: max 0.3 µM
Procedure, shortened: as §1

Dasatinib = compound: CC1=C(C(=CC=C1)Cl)NC(=O)C2=CN=C(S2)NC3=CC(=NC(=N3)C)N4CCN(CC4)CCO [Dasatinib]; settings: max 2 µM
Procedure, shortened: as §1

AZD1390 = compound: CC(C)n1c(=O)n(C)c2cnc3cc(F)c(-c4ccc(OCCCN5CCCCC5)nc4)cc3c21 [AZD1390]; settings: max 0.3 µM
Procedure, shortened: as §1

Paclitaxel = compound: CC(=O)O[C@H]1C(=O)[C@@]2(C)[C@H]([C@H](OC(=O)c3ccccc3)[C@]3(O)C[C@H](OC(=O)[C@H](O)[C@@H](NC(=O)c4ccccc4)c4ccccc4)C(C)=C1C3(C)C)[C@]1(OC(C)=O)CO[C@@H]1C[C@@H]2O [Paclitaxel]; settings: max 3 µM
Procedure, shortened: as §1

AZD5363 = compound: C1CN(CCC1(C(=O)N[C@@H](CCO)C2=CC=C(C=C2)Cl)N)C3=NC=NC4=C3C=CN4 [AZD5363]; settings: max 10 µM
Procedure, shortened: as §1

Cell Line	IC50, cell viability 72 h (Prexasertib) [nM]	IC50, cell viability 72 h (AZD2811) [nM]	IC50, cell viability 72 h (AZD8186) [nM]	IC50, cell viability 72 h (AZD6738) [nM]	IC50, cell viability 72 h (AZD5153) [nM]	IC50, cell viability 72 h (Olaparib) [nM]	IC50, cell viability 72 h (AZD0156) [nM]	IC50, cell viability 72 h (AZD4320) [nM]	IC50, cell viability 72 h (5-Fluorouracil) [nM]	IC50, cell viability 72 h (AZD1775) [nM]	IC50, cell viability 72 h (Crizotinib) [nM]	IC50, cell viability 72 h (Alisertib) [nM]	IC50, cell viability 72 h [1] [nM]	IC50, cell viability 72 h (Gefitinib) [nM]	IC50, cell viability 72 h (Venetoclax) [nM]	IC50, cell viability 72 h (SG3199) [nM]	IC50, cell viability 72 h (Taselisib) [nM]	IC50, cell viability 72 h (Lapatinib) [nM]	IC50, cell viability 72 h (Palbociclib) [nM]	IC50, cell viability 72 h (AZD5991) [nM]	IC50, cell viability 72 h (Savolitinib) [nM]	IC50, cell viability 72 h (SN-38) [nM]	IC50, cell viability 72 h (MK-2206) [nM]	IC50, cell viability 72 h (SRA737) [nM]	IC50, cell viability 72 h (Doxorubicin) [nM]	IC50, cell viability 72 h (Trametinib) [nM]	IC50, cell viability 72 h (Selumetinib) [nM]	IC50, cell viability 72 h (Carboplatin) [nM]	IC50, cell viability 72 h (AZD7648) [nM]	IC50, cell viability 72 h (Etoposide) [nM]	IC50, cell viability 72 h (Gemcitabine) [nM]	IC50, cell viability 72 h (Dasatinib) [nM]	IC50, cell viability 72 h (AZD1390) [nM]	IC50, cell viability 72 h (Paclitaxel) [nM]	IC50, cell viability 72 h (AZD5363) [nM]
NOMO-1 (Acute Myeloid Leukemia)	5.79	905	9000	1660	50.4	> 10000	> 3000	> 1000	2210	215	8600	4160	591	> 10000	627	> 1	1510	> 10000	6660	210	> 1000	7.23	> 10000	1160	542	3.07	138	> 10000	> 10000	2120	10.1	> 2000	> 300	7.09	> 10000
CS1 (Chondrosarcoma)	77.2	> 1000	> 10000	> 10000	> 1000	> 10000	> 3000	> 1000	> 20000	2030	9480	4520	> 5000	> 10000	> 1000	> 1	> 10000	> 10000	> 10000	> 1000	> 1000	18.6	> 10000	> 10000	641	> 1000	> 10000	> 10000	> 10000	> 10000	> 300	> 2000	> 300	114	> 10000
YT (Other Blood Carcinomas)	26.8	> 1000	> 10000	3170	196	> 10000	> 3000	> 1000	808	442	8370	> 10000	> 5000	> 10000	> 1000	> 1	1790	> 10000	4040	49.4	> 1000	4.13	> 10000	4810	511	> 1000	> 10000	> 10000	6930	374	36.5	> 2000	> 300	46.5	> 10000
SK-UT-1 (Other Solid Carcinomas)	21.6	> 1000	> 10000	4170	694	> 10000	> 3000	> 1000	> 20000	1100	> 10000	> 10000	> 5000	> 10000	> 1000	> 1	8850	> 10000	> 10000	> 1000	> 1000	22.7	> 10000	3420	971	> 1000	> 10000	> 10000	> 10000	3400	9.12	> 2000	> 300	28.2	> 10000
BICR78 (Oral Cavity Carcinoma)	238	> 1000	> 10000	7520	966	> 10000	> 3000	> 1000	> 20000	> 3000	> 10000	> 10000	> 5000	> 10000	> 1000	> 1	5010	> 10000	> 10000	> 1000	> 1000	28.4	> 10000	> 10000	> 1000	> 1000	> 10000	> 10000	> 10000	> 10000	> 300	> 2000	> 300	49.3	> 10000

Source: the supplement of paper PMC11061612
